Tests used:
HOXA9/10 expression = assay: Time course of HOXA9/10 expression; format: cell-based; conditions: Supplementary Fig. S6D, S6E
[1] = system: primary human hepatocytes; conditions: cited from earlier work
ENL-FKBP12(F36V) = ENL-FKBP12(F36V) (Homo sapiens, UniProt Q03111); assay: dTAG-mediated degradation of ENL-FKBP12; format: cell-based; conditions: treatment for 6 or 24 hours

CC(C)N(C[C@H]1O[C@@H](n2cnc3c(N)ncnc32)[C@H](O)[C@@H]1O)[C@H]1C[C@@H](CCc2nc3cc(C(C)(C)C)ccc3[nH]2)C1 [EPZ-5676]
kinetics of suppression of HOXA9/10 expression (HOXA9/10 expression): suppressed expression of the same genes at much later time points

C[C@H]1CCCN1Cc1nc2cc(NC(=O)c3ccc4c(cnn4C)c3)ccc2[nH]1 [SGC-iMLLT]
half-life in primary human hepatocytes [1]: modest half-life

CC[C@H](C(=O)N1CCCC[C@H]1C(=O)O[C@H](CCc1ccc(OC)c(OC)c1)c1ccccc1OCC(=O)NCCCCCCOc1cccc2c1C(=O)N(C1CCC(=O)NC1=O)C2=O)c1cc(OC)c(OC)c(OC)c1 (stereo partly drawn) [dTAG13]
level of ENL-FKBP12 proteins (ENL-FKBP12(F36V)): substantial decrease of ENL-FKBP12 proteins

Reference: publication PMC9627135 (Cancer discovery, 2022)
